{"source": "paper PMC6433934", "about": "“Preclinical Evaluation of Bispecific Adaptor Molecule Controlled Folate Receptor CAR-T Cell Therapy With Special Focus on Pediatric Malignancies” (Frontiers in Oncology, 2019)", "key": {"MDA-MB-231 tumor": {"tested_on": "MDA-MB-231 tumor", "assay": "Kinetics of CAR-T cell expansion and tumor uptake in vivo", "set-up": "species or system NSG mice", "conditions": "~4.8 million EGFRt-sorted E2-CAR-T cells day 0, EC17 500 nmol/kg weekly i.v.", "protocol": "(§1) All animal care and use were performed according to NIH guidelines and in compliance with protocols approved by the Purdue University Animal Use and Care Committee. Female 4 to 5-weeks-old NOD/SCID gamma (NSG™) mice (stock number: 005557) were purchased from The Jackson Laboratory (Bar Harbor, ME). Unless specifically indicated, all animals were maintained on a FA-deficient diet (TestDiet, St. Louis, MO) upon arrival and throughout the study. To establish subcutaneous xenografts, MDA-MB-231 and HOS-FRα were implanted in the right flank region at 2.5 × 10^6 and 1 × 10^6 cells per animal, respectively. For intravenous xenografts, THP1-FRβ cells were inoculated at 5 × 10^6 cells per animal. Subcutaneous tumors were measured 2–3 times per week with a caliper and calculated using the ellipsoidal formula (length x width^2)/2. […] All animal doses (CAR-T cells, EC17, sodium fluorescein) were given intravenously.\nTo study CAR-T cell expansion in vivo, we started with 15 MDA-MB-231 tumor bearing mice having ~4.8 million EGFRt-sorted E2-CAR-T cells (1:1 CD4/CD8) injected on day 0. […] For each collection, fresh blood and tumor samples (if available) were analyzed for the presence of human CD3ε+ EGFRt+ CAR-T cells by flow cytometry. Moreover, we analyzed phenotypic changes of E2-CAR-T cells in the circulation (TSCM, TCM, TEM, and TEFF) and the activation status of tumor-infiltrating CAR-T cells (i.e., CD137/4-1BB, PD1).\nFor CAR-T cell analysis in the circulation, plasma was removed from a predetermined volume of whole blood collected into tubes containing ethylenediaminetetraacetic acid anticoagulant. […] A minimum of 20,000 propidium iodide negative live cell events were collected on the Gallios flow cytometer and analyzed with the Kaluza software, version 2.1 (Beckman Coulter, Brea, CA). CAR-positive T cells were identified in mouse blood as human CD3ε+ EGFRt+ events and absolute numbers per volume of blood were calculated using equal numbers of CountBright™ beads (Invitrogen, Carlsbad, CA) added to each sample. […]"}, "MDA-MB-231 tumors": {"tested_on": "MDA-MB-231 tumors", "assay": "Effect of dietary folate on CRS and antitumor activity", "type": "in vivo, NSG mice", "protocol": "as §1\nFor MDA-MB-231 studies, mice received a high dose (~10 million) of a “clinical facsimile” of E2-CAR-T cells (~39% EGFRt+) with a low differentiation profile. Two days later, we started them with 3 different treatment regimens of EC17 at an average tumor size of ~293 ± 39 mm^3. The EC17 dosing was given once-a-week (SIW) at 500 nmol/kg on Mondays, or as escalating doses of 5, 50, or 100, and 500 or 1,000 nmol/kg on Monday, Thursday, and Monday with a 6 day break in-between cycles. Control mice were left untreated (received CAR-T cells but no EC17). For comparison, a cohort of tumor-free littermates also received the same number of CAR-T cells without or with EC17 SIW at 500 nmol/kg. To study the effect of high dietary folate, two sets of NSG mice were placed on either a FA-replete diet (4 mg/kg, Envigo, Indianapolis, IN) or a FA-deficient diet (TestDiet, St. Louis, MO) upon arrival. On day 0, both sets of the mice received ~10 million of the same “clinical facsimile” CAR-T cells followed by no EC17 or EC17 SIW at 500 nmol/kg starting on day 3. On the first day of EC17 administration, MDA-MB-231 tumors size averaged around ~549 ± 184 mm^3 (280–918 mm^3) in FA-replete mice, and ~559 ± 165 mm^3 (356–961 mm^3) in FA-deficient mice.\nDepending on the CAR-T cell dose and how EC17 is administered, tumor-bearing mice receiving FITC-specific CAR-T cells can experience severe CRS and varying degrees of body weight loss ([27], [33], [34]). Therefore, we developed a CRS grading system (0–5 scale) to empirically assess CRS toxicity from animals' gross morphology and social behavior to allow for better timing of CRS rescue. While grades 0 and 5 indicated normal (no CRS) or death (due to severe CRS), respectively, grades 1, 2, and 3–4 were considered mild, light-to-moderate, and severe CRS. In addition, all EC17 doses were intentionally given toward the end of any given day to allow potential CRS symptoms to develop overnight. On the days immediately following each EC17 dose, animals were scored and rescue agents such as sodium fluorescein, folic acid and leucovorin were used to mitigate CRS toxicity ([33]). In this particular instance, a batch of E2-CAR-T cells with a high EGFRt+ CD4/CD8 ratio (~93:7) was given to HOS-FRα tumor-bearing mice at a mixture of ~2.5 million CD8 and ~33 million CD4 on day 0. When EC17 was dosed, respectively, at 500, 100, and 500 nmol/kg on days 3, 10, and 12, low CRS (grades 1–2) was noted on days 4 and 11 but high CRS (grade 3) was noted on day 13. To mitigate the severe CRS toxicity, sodium fluorescein was intravenously administrated at ~96 mg/kg in the morning of day 13 and mouse plasma samples were collected 6 h later for analysis of CRS-associated cytokines."}, "[1]": {"conditions": "FA-deficient diet, ~10 million E2-CAR-T cells, subsequent EC17 doses SIW 500 nmol/kg"}, "[2]": {"conditions": "FA-replete diet, EC17 SIW 500 nmol/kg, ~10 million E2-CAR-T cells, n = 5"}}, "data": [{"smiles": "Nc1nc2ncc(CNc3ccc(C(=O)NC(CCC(=O)NCCNC(=S)Nc4ccc(-c5c6ccc(=O)cc-6oc6cc(O)ccc56)c(C(=O)O)c4)C(=O)O)cc3)nc2c(=O)[nH]1", "note": "(stereo not drawn) [EC17, FA-(γ)-ethylenediamine-FITC]", "values": [{"measurement": "time of peak of circulating CAR-T cells", "setting": "MDA-MB-231 tumor", "value": "~15", "unit": "days"}, {"measurement": "tumor response", "setting": "MDA-MB-231 tumor; smaller tumors", "value": "started to respond after the second EC17 dose"}, {"measurement": "persistence of circulating CAR-T cells", "setting": "MDA-MB-231 tumor; last analysis by flow cytometry", "value": "up to 30 days"}, {"measurement": "cures", "setting": "MDA-MB-231 tumors; FA-deficient diet, EC17 SIW 500 nmol/kg, ~10 million E2-CAR-T cells, n = 5", "value": "5/5"}, {"measurement": "CD3ε+ EGFRt+ CAR-T cells in blood", "setting": "MDA-MB-231 tumors; FA-deficient diet, day 52, EC17 SIW 500 nmol/kg", "value": "1.6–20.4 × 10^4 per 100 μL blood"}, {"measurement": "CRS grade", "setting": "MDA-MB-231 tumors; [1]", "value": "2–3"}, {"measurement": "body weight loss", "setting": "MDA-MB-231 tumors; [1]", "value": "≤ 11.4", "unit": "%"}, {"measurement": "complete responses", "setting": "MDA-MB-231 tumors; [2]", "value": "2/5"}, {"measurement": "cures", "setting": "MDA-MB-231 tumors; [2]", "value": "2/5"}, {"measurement": "partial response", "setting": "MDA-MB-231 tumors; [2]", "value": "1/5"}, {"measurement": "CD3ε+ EGFRt+ CAR-T cells in blood", "setting": "MDA-MB-231 tumors; FA-replete diet, day 59, EC17 SIW 500 nmol/kg", "value": "0.027–4.3 × 10^3 per 100 μL blood"}, {"measurement": "CRS symptoms", "setting": "MDA-MB-231 tumors; FA-replete diet, ~10 million E2-CAR-T cells, EC17 SIW 500 nmol/kg", "value": "did not show symptoms of CRS"}]}]}
